Series [1] deals with duplex oligonucleotides Pu-GAAATC-Py and Pu-GAAATG-Py. The series is described as follows: Oligonucleotide binding/alkylation assay.
Series [2] can be described thus: Exploratory single dose free drug toxicology study in rats. Format: in vivo, rat. To be noted: for reticulocytes: all doses, 72 hours post-dose; for reticulocyte recovery: by 168 hours post-dose; for MTD at 7 day: rat, in vivo. On the procedure:
An exploratory single dose toxicology study was conducted in rats comparing the C-1 (PBD bis alkylator) and DM-2 (PBD monoalkylator) free drugs. Animals received a single IV dose of C-1, DM-2, or vehicle and were monitored for a 7-day recovery period.
Toxicity was assessed by clinical observations and clinical pathology (hematology and clinical chemistry at 72 and 168 hours post-dose). In general, results were similar for DM-2 at ten times the dose level of C-1.

The mark [3] stands for this setting: 100 μM compound, 50 μM DNA, 1 hour, 37° C.

In the case of `C=C1C[C@H]2CNc3cc(OCCCCCOc4cc5c(cc4OC)C(=O)N4CC(=C)C[C@H]4CN5)c(OC)cc3C(=O)N2C1` [C-3, (11aS,11a′S)-8,8′-(pentane-1,5-diylbis(oxy))bis(7-methoxy-2-methylene-1,2,3,10,11,11a-hexahydro-5H-benzo[e]pyrrolo[1,2-a][1,4]diazepin-5-one)], the DNA binding entry in series [1] (imine bonds of C-1 reduced) is listed as “completely eliminates DNA binding”.

As to `C=C1C[C@H]2C=Nc3cc(OCCCCCOc4cc5c(cc4OC)C(=O)N4CC(=C)C[C@H]4C(=O)N5)c(OC)cc3C(=O)N2C1` [DM-2, (S)-7-methoxy-8-((5-(((S)-7-methoxy-2-methylene-5-oxo-2,3,5,11a-tetrahydro-1H-benzo[e]pyrrolo[1,2-a] [1,4]diazepin-8-yl)oxy)pentyl)oxy)-2-methylene-2,3-dihydro-1H-benzo[e]pyrrolo[1,2-a] [1,4]diazepine-5,11(10H,11aH)-dione], in series [2] (2 mg/kg), the clinical pathology entry is “clinical pathology changes indicative of liver and kidney toxicity”; the outcome was “euthanized in moribund condition on Day 4”. The body weight loss entry in series [2] (2 mg/kg, Day 2 to 4) was “approximately 14%”. The tolerability result in series [2] (0.5 and 1 mg/kg, single IV dose) is given as “well tolerated”. In series [2], the reticulocytes result is on record as “dose-dependent decrease in reticulocytes”; the reticulocyte recovery result was “recovered in the 0.5 and 1 mg/kg groups”. Moreover, in series [2] (single IV dose), the MTD at 7 day worked out at 1 mg/kg; the main target organs entry is “bone marrow, kidney, and liver”.

In the case of `C=C1C[C@H]2C=Nc3cc(OCCCCCOc4cc5c(cc4OC)C(=O)N4CC(=C)C[C@H]4C=N5)c(OC)cc3C(=O)N2C1` [C-1, (11aS,11a′S)-8,8′-(pentane-1,5-diylbis(oxy))bis(7-methoxy-2-methylene-1,2,3,11a-tetrahydro-5H-benzo[e]pyrrolo[1,2-a][1,4]diazepin-5-one), reference compound], the clinical pathology result in series [2] (0.2 mg/kg) is “clinical pathology changes indicative of liver and kidney toxicity”. Also, in series [2] (0.05 and 0.1 mg/kg, single IV dose), the tolerability entry is recorded as “well tolerated with no clinical signs”. In addition, in series [2], the reticulocytes result is recorded as “dose-dependent decrease in reticulocytes”; the reticulocyte recovery entry is “recovering in the 0.05 and 0.1 mg/kg groups”. Besides, in series [2] (single IV dose), the MTD at 7 day amounted to 0.1 mg/kg; the main target organs entry was “bone marrow, kidney, and liver”; the “toxic potency relative to DM-2” value is reported as “approximately ten times as potent as DM-2”. For the same compound, in series [1] (setting [3]), the “more efficiency to covalently alkylate the duplex oligonucleotides than monoamine DM-1” value is on record as 2-3 times.

In the case of `C=C1C[C@H]2C=Nc3cc(OC)c(OC)cc3C(=O)N2C1` [C-2, (S)-7,8-dimethoxy-2-methylene-1,2,3,11a-tetrahydro-5H-benzo[e]pyrrolo[1,2-a][1,4]diazepin-5-one], in series [1] (setting [3]), the “less efficiency in covalently alkylating the duplex oligonucleotides than dimer C-1” value was more than 50 times.

The values are drawn from patent US10639373B2, “Pyrrolobenzodiazepine antibody drug conjugates and methods of use” (priority 2015, dated 2020).
